Data published in patent US20190125745A1, “TREATMENT AND DIAGNOSIS OF CANCER” (Rgenix, Inc., priority 2014, published 2019).
Counter-ions that a name gives are not always drawn.

Assays:
[1] = system: B16F10 mouse melanoma cells; assay: B16F10 tumor growth and metastasis with LXR or ApoE knockdown or knockout; assay type: in vivo
Procedure: FIG. 12. Therapeutic Delivery of LXR Agonists Upregulates Melanoma-Derived and Systemic ApoE Expression. (A-B) ApoE expression levels, quantified by qRT-PCR, in subcutaneous tumors formed by B16F10 mouse melanoma cells injected into C57BL/6 mice. After 5-mm^3 tumor formation, mice were fed a control diet or diet containing GW3965 (20 mg/kg) (A) or T0901317 (20 mg/kg) (B) for 7 days. n=3-4. (C-E) ApoEtranscript expression in primary tumors (C), lung metastases (D), and brain metastases (E) formed by MeWo human melanoma cells grafted onto NOD Scid mice that were administered control chow or chow supplemented with GW3965 (20 mg/kg). ApoE levels were assessed on day 35 (C), day 153 (D), and day 34 (E) post-injection of the cancer cells. n=3-5. (F) Relative expression levels of LXRα, LXRβ, and ApoE were determined by qRT-PCR in B16F10 mouse melanoma cells expressing a control hairpin or an shRNA targeting mouse LXRα (sh_mLXRα), mouse LXRβ (sh_mLXRβ), or mouse ApoE (sh_mApoE). (G-H) ApoE (G) and ABCA1(H) mRNA levels, measured by qRT-PCR, in B16F10 cells expressing a control shRNA or shRNAs targeting mouse LXRβ or mouse ApoE. The cells were treated with DMSO or GW3965 at 5 μM for 48 hours. n=3. (I) ABCA1 mRNA levels, measured by qRT-PCR, in systemic white blood cells extracted from LXRα −/− or LXRβ −/− mice fed a control diet or a GW3965-supplemented diet (20 mg/kg) for 10 days. n=3-4. (J) Relative expression of ApoE mRNA, expressed as the frequency of SAGE tags, in mouse skin and lung tissues was determined using the public mSAGE Expression Matrix database available through the NCI-funded Cancer Genome Anatomy Project (CGAP). (K) Relative expression of ApoE mRNA, determined by qRT-PCR, in MeWo melanoma cells dissociated from lung metastatic nodules (LM2) or primary tumors relative to control unselected MeWo parental cells. n=3.
FIG. 13. LXRβ Agonism Suppresses Melanoma Tumor Growth and Metastasis by Inducing Melanoma-Derived and Systemic ApoE Expression. […] (B) Quantification of ApoE protein expression based on western blots shown in (A). […] Representative tumor images extracted at the end point are shown in the right panel. n=6-18. (E) ApoE transcript levels, quantified by qRT-PCR, in systemic white blood cells extracted from LXRα −/− or LXRβ −/− mice fed a control diet or a GW3965-supplemented diet (20 mg/kg) for 10 days. n=3-5. (F) Subcutaneous tumor growth by 5×10^4 B16F10 control cells or B16F10 cells expressing an shRNA targeting mouse ApoE (sh_mApoE) in C57BL/6-WT or ApoE−/− mice. […] Representative images of tumors extracted at the final day of measurement (d12) are shown on the right. n=8-18. (G) Lung colonization by 5×10^4 B16F10 cells transduced with a control shRNA or sh_mApoE and intravenously injected into C57BL/6-WT or ApoE−/− mice. […] Lung metastasis was quantified on d22 by bioluminescence imaging. Representative lungs extracted at the end point (d22) are shown in the right panel. n=5-10. (H) ApoE protein expression, determined by blinded immunohistochemical analysis, in non-metastatic (n=39) and metastatic (n=34) primary melanoma skin lesion samples obtained from patients at MSKCC. The fraction of ApoE-positively staining cell area was quantified as a percentage of total tumor area.

[2] = system: SK-Mel-334.2 primary human melanoma line; assay: Subcutaneous SK-Mel-334.2 tumor growth in immunocompromised mice; assay type: in vivo; conditions: oral
Procedure: FIG. 4. Therapeutic LXR Activation Inhibits Melanoma Tumor Growth. […] Representative tumor images shown correspond to tumors extracted at the final day (d12). n=10-18 (A), 8-10 (B). (C-E) Primary tumor growth by 1×10^6 MeWo (C), […] SK-Mel-334.2 (D), and 2×10^6 SK-Mel-2 (E) human melanoma cells subcutaneously injected into immunocompromised mice. […] Tumor images shown correspond to last day of measurements. n=6-34 (C), 8 (D), 5 (E). (F) 5×10^4 B16F10 cells were injected subcutaneously into C57BL/6-WT mice. Upon tumor growth to 150 mm^3, mice were fed continuously with a control chow or a chow containing GW3965 (150 mg/kg), and tumor growth was measured daily. n=6-13. […] Tumor volume was calculated as (small diameter)^2×(large diameter)/2. […] Scale bars, 5 mm (A-D), 50 μm (J, K), 25 μm (L).

[3] = system: DTIC-resistant MeWo human melanoma cells; conditions: oral, diet 100 mg/kg
Procedure: Tumor growth was measured twice a week.

[4] = in vivo; cited from earlier work

O=C(O)Cc1cccc(OCCCN(Cc2cccc(C(F)(F)F)c2Cl)CC(c2ccccc2)c2ccccc2)c1 [GW3965 108, 3-[3-[N-(2-Chloro-3-trifluoromethylbenzyl)-(2,2-diphenylethyl)amino]propyloxy] phenylacetic acid hydrochloride]
metastasis suppression upon genetic inactivation of ApoE ([1]; ApoE−/− mice, diet 20 mg/kg): only partially prevented | suppressing tumor growth in mice genetically inactivated for ApoE ([1]; ApoE−/− mice, diet 20 mg/kg): completely ineffective | induction of ApoE expression upon knockdown of mouse melanoma-cell LXRβ ([1]; B16F10 cells, 5 μM, 48 hours): abrogated | inhibition of metastasis with both melanoma-cell ApoE knockdown and genetic inactivation of systemic ApoE ([1]; diet 20 mg/kg): completely blocked | suppression of tumor growth with melanoma-cell LXRβ knockdown ([1]; diet 20 mg/kg, 7 days): unable to prevent | tumor growth inhibition upon depletion of melanoma-cell ApoE ([1]; diet 20 mg/kg, 7 days): did not prevent | metastasis-suppressive effect upon knockdown of melanoma-cell ApoE ([1]; lung colonization, diet 20 mg/kg): partially prevented | upregulation of systemic ApoE expression in LXR null mice ([1]; white blood cells, diet 20 mg/kg, 10 days): abrogated in LXRβ −/−, but not in LXRα −/− mice | inhibition of tumor growth, SK-Mel-334.2 [2]: 73% | growth of in vivo-derived DTIC-resistant human melanoma tumors (MeWo) [3]: strongly inhibited | crossing of the blood brain barrier [4]: can efficiently cross the blood brain barrier
